According to patent US5677439A, “Oligonucleotide analogues containing phosphate diester linkage substitutes, compositions thereof, and precursor dinucleotide analogues” (Sanofi, priority 1995, dated 1997):
“Also recorded” adds a separate entry of the source.

What was measured:
[1] = test system: c-myc protein in MOLT-4 human T-cell leukemia cells; assay: C-MYC protein expression in MOLT-4 cells (35S-methionine, radioimmunoprecipitation); assay type: cell-based; conditions: 60 μM, 8 hours incubation
Experimental: Asynchronous exponentially growing Molt-4 cells were incubated for 8 hours in the presence or absence of 60 μM c-myc directed antisense DNA. The cells were then incubated for 45 minutes in the presence of ^35 S-methionine and the content of c-myc protein guantitated using radioimmunoprecipitation with a c-myc antibody.

[2] = test system: PHA stimulated human PBL; assay: Progression of PHA stimulated PBL into the S-phase of the cell cycle (flow cytometry); assay type: cell-based; conditions: PHA stimulation 48 hours, versus nontreated control
Experimental: Human PBL's were stimulated with PHA for 48 hours in the presence or absence of the antisense oligonucleotide sequences of Table 6. The percent of the population of cells in each treatment group in the S-phase of the cell cycle as compared to the nontreated control was determined using standard flow cytometric techniques.

[3] = test system: fetal calf serum-associated exonuclease; assay: Nuclease resistance: 2 h incubation in cell culture medium with 10% fetal calf serum, HPLC of parent compound; assay type: in vitro ADME; conditions: for % DEGRADATION MAJOR PEAK: 2 hours at 37° C., 6 or 7 μM, RPMI 1640 medium with 10% heat inactivated FCS; for % of oligomer remained after incubation: 2 hrs incubation with fetal calf serum-associated exonuclease; for AREA-MAJOR PEAK/2.0 HR: HPLC peak area of parent compound after 2.0 hr at 37° C. in RPMI 1640 with 10% FCS; for AREA-MAJOR PEAK/0.0 MIN: HPLC peak area of parent compound, 260 nm; for degradation / resistance to hydrolysis by FCS-associated exonucleases (in words): 2 hrs incubation, 10% FCS
Experimental: The oligonucleotides of Table 4 were dissolved in water. DNA concentrations were then determined by measuring the absorbance of samples at 260 nm (on a Perkin Elmer Lambda 4C Spectrophotometer at ambient room temperature) and using calculated extinction coefficients [method of Cantor and Warsaw, CRC Handbook of Biochemistry and Molecular Biology, 3rd. ed.
The FCS was heat inactivated at 56° C. for 0.5 hour prior to use. Samples were then placed on ice and deproteinized using five extractions with 24:1 chloroform:isoamyl alcohol. Samples were either stored frozen at -20° C. or immediately loaded onto a refrigerated (4° C.) WISP (Waters) HPLC autoinjector.
Oligonucleotide hydrolysis was guantitated by determining the amount of disappearance of the parent compound. Oligonucleotides (from the reaction mixture) were separated on an LKB Ultrachrome GTi dual pump chromatography system equipped with a fixed wavelength detector (260 nm), and recording integrator, using a GenPak FAX (Waters) anion exchange column eguilibrated in Buffer A (1 mM EDTA; 15 mM sodium phosphate, pH 8.5). Column temperature was maintained at 60° C. using a Waters column oven. Fifty microliter sample injection volumes were used. The oligonucleotides were eluted using a linear gradient of 0% to 100% Buffer B (Buffer A containing 0.5M NaCl) over 60 minutes. Buffer flow rate was 1 mL/min.

| Substance | % REDUCTION C-MYC PROTEIN [1] | % CONTROL S-PHASE ([2]; 30 μM) | % CONTROL S-PHASE ([2]; 60 μM) | % DEGRADATION MAJOR PEAK [3] | % of oligomer remained after incubation [3] | AREA-MAJOR PEAK/2.0 HR [3] | AREA-MAJOR PEAK/0.0 MIN [3] | degradation / resistance to hydrolysis by FCS-associated exonucleases (in words) [3] |
| --- | --- | --- | --- | --- | --- | --- | --- | --- |
| 5' AAC GTT GAG GGG CAT 3' [reference compound] | 61.0 ± 2.6% | 75 ± 6% | 9 ± 10% |  |  |  |  |  |
| 5' CCT CGA CCA CCG CAT 3' (DNA CCTCGACCACCGCAT; DNA, backbone and methylation of C not given here) [Ref. Code 11, unmodified oligodeoxynucleotide made by standard solid phase phosphoramidite procedures, comparison, reference compound] |  |  |  | 75.3% | 24.7% | 0.3177 | 1.2861 |  |
| 5' X CCT CGA CCA CCG CAT X (A) 3' (antisense CCTCGACCACCGCAT; triethylene glycol unit at both ends, extra 3' A, further chemistry not given here) [Ref. Code 9, TEG-terminated anti-RAS oncogene DNA, X is TEG] |  |  |  | 13.0% | 87.0% | 0.3258 | 0.3744 |  |
| 5' X GGA GCT GGT GGC GTA X (A) 3' (antisense GGAGCTGGTGGCGTA; triethylene glycol unit at both ends, extra 3' A, further chemistry not given here) [Ref. Code 7, TEG-terminated anti-RAS oncogene DNA, X is TEG] |  |  |  | 0.0% |  | 0.3663 | 0.2325 | no degradation; also recorded: completely resistant to hydrolysis |
| 5' XX CCT CGA CCA CCG CAT XX (A) 3' (antisense CCTCGACCACCGCAT; two TEG at each end, 3' A, chemistry not fully specified) [Ref. Code 10, TEG-terminated anti-RAS oncogene DNA, X is TEG] |  |  |  | 0.0% |  | 0.3697 | 0.3642 | no degradation; also recorded: completely resistant to hydrolysis |
| 5' XX GGA GCT GGT GGC GTA XX (A) 3' (antisense GGAGCTGGTGGCGTA; two triethylene glycol units at each end, extra 3' A, further chemistry not given here) [Ref. Code 8, TEG-terminated anti-RAS oncogene DNA, X is TEG] |  |  |  | 17.9% | 82.1% | 0.1777 | 0.2164 |  |
